Measured values taken from patent publication US6355799B1, “Substituted benzene compounds, process for their preparation, and herbicidal and defoliant compositions containing them” (ISK Americas Incorporated, priority 1997, dated 2002).

How the values were obtained:
Format in all cases: in vivo
[1] = tested on: redroot pigweed (Amaranthus retroflexus, AMARE); assay: Pre-emerge test, greenhouse herbicide activity screening; details: rated 14 days after application, 0 = no damage, 100 = complete death
Summary of the method: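 Compounds in acetone were track-sprayed at 187 l/ha, 15–1000 g ai/ha, onto sandy loam pots. Pre-emerge seeds were sown one day before spraying, with surface watering afterwards. Post-emerge plants were at the 2–3 leaf stage and sprayed with 0.25% v/v non-ionic surfactant. Injury was rated 0–100 at 14 days.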

[2] = tested on: barnyardgrass (Echinochloa crus-galli, ECHCG); assay: as above; details: rated 14 days after application, 0 = no damage, 100 = complete death
Summary of the method: (§1)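 Compounds in acetone were track-sprayed at 15-1000 g ai/ha (187 l/ha) on sandy loam pots: pre-emerge one day after seeding, post-emerge at 2-3 leaf stage with 0.25% v/v non-ionic surfactant. Phytotoxicity was rated 14 days later on a 0 (no damage) to 100 (complete death) scale.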

[3] = tested on: common ragweed (Ambrosia artemisizfolia L., AMBEL); assay: as above; details: rated 14 days after application, 0 = no damage, 100 = complete death
Summary of the method: as §1

[4] = tested on: green foxtail (Setaria viridis, SETVI); assay: as above; details: rated 14 days after application, 0 = no damage, 100 = complete death
Summary of the method: as §1

[5] = tested on: ivyleaf morningglory (Ipomoea hederacea, IPOHE); assay: as above; details: rated 14 days after application, 0 = no damage, 100 = complete death
Summary of the method: as §1

[6] = tested on: johnsongrass (Sorghum halepense, SORHA); assay: as above; details: rated 14 days after application, 0 = no damage, 100 = complete death
Summary of the method: as §1

[7] = tested on: lambsquarters (Chenopodium album, CHEAL); assay: as above; details: rated 14 days after application, 0 = no damage, 100 = complete death
Summary of the method: as §1

[8] = tested on: large crabgrass (Digitaria sanguinalis, DIGSA); assay: as above; details: rated 14 days after application, 0 = no damage, 100 = complete death
Summary of the method: as §1

[9] = tested on: sicklepod (Cassia obtusifolia, CASOB); assay: as above; details: rated 14 days after application, 0 = no damage, 100 = complete death
Summary of the method: as §1

[10] = tested on: velvetleaf (Abutilon theophrasti, ABUTH); assay: as above; details: rated 14 days after application, 0 = no damage, 100 = complete death
Summary of the method: as §1

[11] = tested on: field corn (Zea mays L., var. Dekalb 535, CORN); assay: Pre-emerge test, crop safety; details: rated 14 days after application, 0 = no damage, 100 = complete death
Summary of the method: (§2)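 Rating: 0–100 visual injury, 14 DAA. Application: acetone, 187 l/ha, 15–1000 g ai/ha, flat-fan track sprayer with nozzle 40–45 cm above soil or canopy. Post-emerge runs used 0.25% v/v surfactant on 2–3 leaf plants.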

[12] = tested on: upland rice (Oryza sp., var. Tebonnet, RICE); assay: Pre-emerge test, crop safety; details: rated 14 days after application, 0 = no damage, 100 = complete death
Summary of the method: as §2

[13] = tested on: barnyardgrass (Echinochloa crus-galli, ECHCG); assay: Post-emerge test, greenhouse herbicide activity screening; details: post-emerge, 14 days after application, rating scale 0-100
Summary of the method: (§3)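 Plants grown in 10 cm pots of sandy loam mix received acetone-dissolved compounds through a moving flat-fan nozzle. Doses ranged from 15 to 1000 g ai/ha. Pre-emerge pots were seeded one day earlier, post-emerge pots 8–21 days earlier. Fourteen days on, each pot was graded 0–100 for damage.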

[14] = tested on: common ragweed (Ambrosia artemisizfolia L., AMBEL); assay: as above; details: post-emerge, 14 days after application, rating scale 0-100
Summary of the method: as §3

[15] = tested on: green foxtail (Setaria viridis, SETVI); assay: as above; details: post-emerge, 14 days after application, rating scale 0-100
Summary of the method: as §3

[16] = tested on: ivyleaf morningglory (Ipomoea hederacea, IPOHE); assay: as above; details: post-emerge, 14 days after application, rating scale 0-100
Summary of the method: as §3

[17] = tested on: johnsongrass (Sorghum halepense, SORHA); assay: as above; details: post-emerge, 14 days after application, rating scale 0-100
Summary of the method: as §3

[18] = tested on: lambsquarters (Chenopodium album, CHEAL); assay: as above; details: post-emerge, 14 days after application, rating scale 0-100
Summary of the method: as §3

[19] = tested on: large crabgrass (Digitaria sanguinalis, DIGSA); assay: as above; details: post-emerge, 14 days after application, rating scale 0-100
Summary of the method: as §3

[20] = tested on: redroot pigweed (Amaranthus retroflexus, AMARE); assay: as above; details: post-emerge, 14 days after application, rating scale 0-100
Summary of the method: as §3

[21] = tested on: sicklepod (Cassia obtusifolia, CASOB); assay: as above; details: post-emerge, 14 days after application, rating scale 0-100
Summary of the method: as §3

[22] = tested on: velvetleaf (Abutilon theophrasti, ABUTH); assay: as above; details: post-emerge, 14 days after application, rating scale 0-100
Summary of the method: as §3

[23] = tested on: field corn (Zea mays L., var. Dekalb 535, CORN); assay: Post-emerge test, crop safety; details: post-emerge, 14 days after application, rating scale 0-100
Summary of the method: as §1

[24] = tested on: upland rice (Oryza sp., var. Tebonnet, RICE); assay: Post-emerge test, crop safety; details: post-emerge, 14 days after application, rating scale 0-100
Summary of the method: as §1

SMILES: COc1c(Cl)cc(F)c(-n2c(=O)cc(C(F)(F)F)n(C)c2=O)c1NC(=O)c1ccccc1F [2-39]
- Pre-emerge Herbicidal Activity, phytotoxicity rating (0-100), AMARE ([1]; 63 g ai/ha): 100
- Pre-emerge Herbicidal Activity, phytotoxicity rating (0-100), AMARE ([1]; 250 g ai/ha): 100
- Pre-emerge Herbicidal Activity, phytotoxicity rating (0-100), ECHCG ([2]; 63 g ai/ha): 90
- Pre-emerge Herbicidal Activity, phytotoxicity rating (0-100), ECHCG ([2]; 250 g ai/ha): 100
- Pre-emerge Herbicidal Activity, phytotoxicity rating (0-100), AMBEL ([3]; 63 g ai/ha): 100
- Pre-emerge Herbicidal Activity, phytotoxicity rating (0-100), AMBEL ([3]; 250 g ai/ha): 100
- Pre-emerge Herbicidal Activity, phytotoxicity rating (0-100), SETVI ([4]; 63 g ai/ha): 100
- Pre-emerge Herbicidal Activity, phytotoxicity rating (0-100), SETVI ([4]; 250 g ai/ha): 100
- Pre-emerge Herbicidal Activity, phytotoxicity rating (0-100), IPOHE ([5]; 63 g ai/ha): 95
- Pre-emerge Herbicidal Activity, phytotoxicity rating (0-100), IPOHE ([5]; 250 g ai/ha): 100
- Pre-emerge Herbicidal Activity, phytotoxicity rating (0-100), SORHA ([6]; 63 g ai/ha): 60
- Pre-emerge Herbicidal Activity, phytotoxicity rating (0-100), SORHA ([6]; 250 g ai/ha): 100
- Pre-emerge Herbicidal Activity, phytotoxicity rating (0-100), CHEAL ([7]; 63 g ai/ha): 100
- Pre-emerge Herbicidal Activity, phytotoxicity rating (0-100), CHEAL ([7]; 250 g ai/ha): 100
- Pre-emerge Herbicidal Activity, phytotoxicity rating (0-100), DIGSA ([8]; 63 g ai/ha): 99
- Pre-emerge Herbicidal Activity, phytotoxicity rating (0-100), DIGSA ([8]; 250 g ai/ha): 100
- Pre-emerge Herbicidal Activity, phytotoxicity rating (0-100), CASOB ([9]; 63 g ai/ha): 100
- Pre-emerge Herbicidal Activity, phytotoxicity rating (0-100), CASOB ([9]; 250 g ai/ha): 100
- Pre-emerge Herbicidal Activity, phytotoxicity rating (0-100), ABUTH ([10]; 63 g ai/ha): 100
- Pre-emerge Herbicidal Activity, phytotoxicity rating (0-100), ABUTH ([10]; 250 g ai/ha): 100
- Pre-emerge phytotoxicity rating (0-100), crop damage, CORN ([11]; 63 g ai/ha): 70
- Pre-emerge phytotoxicity rating (0-100), crop damage, CORN ([11]; 250 g ai/ha): 95
- Pre-emerge phytotoxicity rating (0-100), crop damage, RICE ([12]; 63 g ai/ha): 90
- Pre-emerge phytotoxicity rating (0-100), crop damage, RICE ([12]; 250 g ai/ha): 99
- phytotoxicity rating ECHCG ([13]; 63 g ai/ha): 0
- phytotoxicity rating ECHCG ([13]; 250 g ai/ha): 60
- phytotoxicity rating AMBEL ([14]; 63 g ai/ha): 50
- phytotoxicity rating AMBEL ([14]; 250 g ai/ha): 95
- phytotoxicity rating SETVI ([15]; 63 g ai/ha): 20
- phytotoxicity rating SETVI ([15]; 250 g ai/ha): 80
- phytotoxicity rating IPOHE ([16]; 63 g ai/ha): 99
- phytotoxicity rating IPOHE ([16]; 250 g ai/ha): 100
- phytotoxicity rating SORHA ([17]; 63 g ai/ha): 10
- phytotoxicity rating SORHA ([17]; 250 g ai/ha): 60
- phytotoxicity rating CHEAL ([18]; 63 g ai/ha): 90
- phytotoxicity rating CHEAL ([18]; 250 g ai/ha): 95
- phytotoxicity rating DIGSA ([19]; 63 g ai/ha): 0
- phytotoxicity rating DIGSA ([19]; 250 g ai/ha): 50
- phytotoxicity rating AMARE ([20]; 63 g ai/ha): 70
- phytotoxicity rating AMARE ([20]; 250 g ai/ha): 95
- phytotoxicity rating CASOB ([21]; 63 g ai/ha): 60
- phytotoxicity rating CASOB ([21]; 250 g ai/ha): 90
- phytotoxicity rating ABUTH ([22]; 63 g ai/ha): 100
- phytotoxicity rating ABUTH ([22]; 250 g ai/ha): 100
- phytotoxicity rating CORN ([23]; 63 g ai/ha): 20
- phytotoxicity rating CORN ([23]; 250 g ai/ha): 70
- phytotoxicity rating RICE ([24]; 63 g ai/ha): 30
- phytotoxicity rating RICE ([24]; 250 g ai/ha): 70
